We go through two molecules from US10258692B2, “Oral pharmaceutical formulation of BCS class III molecules” (ETHYPHARM, priority 2012, dated 2019).

≈ marks a conversion by molar mass, not a printed value. Where two headings read alike, the source gives them in different places.

A word on the solubility: it is how much of the substance goes into solution per volume. As usually defined, the log P is a log measure of how a compound divides between an organic and an aqueous phase. A word on the logP: it is the decadic logarithm of the partition coefficient of the neutral form, usually between octanol and water.

Data set [1] is described as follows: Permeability assay on Caco-2 cells (apparent permeability). Particulars: human. It counts as in vitro ADME, human. The source says: (§1) The Caco-2 cells are derived from the culture of human cells of cancerous origin capable of differentiating in the presence of a suitable culture medium (Pontier, 1997-1998). Their properties are a function of the number of subcultures to which they are subjected. […] The brush-border is differentiated and developed with very tight junctions of 10 to 50 Å (narrower than those of the small intestine). From a biochemical viewpoint, Caco-2 cells also express the enzymes of the enterocytes. In addition, numerous transporters are present but their expression is lower than the levels found in vivo and the P-gp efflux pump is over-expressed which may underestimate absorption compared with in vivo.
(§2) The Caco-2 cells were placed in culture and differentiated over 21 to 30 days. They were subjected to a number of subcultures of less than 110. The culture medium was DMEM (Dulbecco's Modified Eagle Medium) supplemented with inactivated 10% foetal calf serum, with 1% non-essential amino acids and antibiotics.
(§3) The Caco-2 cells allowed evaluation of the potential of eight formulas given in Tables 5a, 5b, 5c and 5d, for improvement in the apparent permeability of baclofen. The dilutions are those chosen by the subcontractor as a function of baclofen concentration measured by the assay technique and as a function of the […] non-toxic concentration given by preliminary toxicity studies.
(§4) Samples were taken after the placing the test specimen in the apical medium: at T5 minutes and T125 minutes in the donor compartment and at T65 minutes and T125 minutes in the receiver compartment. […]
(§5) The apparent permeability of baclofen and the recovery ratio were calculated as follows: Papp=[ΔQ/(Δt×A)]/C0 where Papp=apparent permeability (cm·s^−1) • ΔQ=difference in amount of baclofen measured between the two samplings • Δt=time interval between the two samplings • A=exposure surface area (cm^2) • C0=initial concentration deposited in the donor compartment.
(§6) Each assay was performed three times. For the validity of the assay, the permeability of a reference compound was also measured as positive control. […]
Background: Passage across Caco-2 layers is used to estimate intestinal permeability.

In data set [2] the test system is Caco-2 cells. Briefly: Lucifer Yellow test (paracellular transport, tight junctions). It counts as cell-based, human. From the text: Lucifer yellow (LY) is a marker of paracellular transport (Buyukorturk, et al., 2010). Its measurement in the receiver compartment during the permeability assay allows observation of the opening of the tight junctions. Measurement can also be performed after the assay to evaluate cell integrity (Nollevaux, et al., 2006). The apparent permeability of Lucifer Yellow under normal conditions is […] (Oroxcell, 2011).
Throughout the assays the crossing of Lucifer Yellow from the apical to the basolateral compartment, a marker of paracellular transport, was also evaluated. 200 μM of Lucifer Yellow was co-incubated with the test compound and its permeability evaluated in the same manner as for the latter. Concentrations were measured by fluorescence in both compartments at the start and at the end of the assay.

The nature of data set [3]: Baclofen solubility assays (visual method). The format is physicochemical. The settings on record: for solubility at 24 h: thermodynamic from solid. The protocol: Beforehand it is important to determine the solubility of the active ingredient in the excipients to be evaluated. For the purpose of cell assays, it is important that the active ingredient should be in molecular form to obtain cross-membrane transport. Solubility was determined via visual method by adding exactly weighed quantities of baclofen to the selected excipients, after being left under agitation for 24 h. First the solubility of baclofen at ambient temperature in Labrasol®, Miglyol® 810 and Captex® 355 was determined. The solubility of baclofen in Gélucire® 50/13 was determined after melting the excipient at a temperature higher than 50° C. and placing thereof in a thermostat-controlled oven at 60° C. At a second step, to increase the solubility of baclofen in an aqueous medium, this solubility was determined in an acidified solution of 0.01 M fumaric acid.
The solubility values indicated in Table 7 below were determined in relation to visual observation of particles in the media.

The conditions of data set [4]: Benet, et al., 2011; cited from earlier work.
Data set [5] deals with Caco-2 cells. Briefly: Permeability assay on Caco-2 cells (apparent permeability). The settings on record: Caco-2, apical pH 6.8 to basolateral pH 7.4; listed as non-formulated baclofen. The format is in vitro ADME, human.
From the text: as §1, §2, §3, §4, §5, §6

The nature of data set [6]: Physicochemical characteristics of baclofen (internal report). The protocol: Baclofen (FIG. 1) is a BCS class III molecule.
The transport mechanism of baclofen (Merino, et al., 1989) is active transport by means of transporters but these are saturated at high dose. Not knowing the transporter composition of the Caco-2 cells, it is sought to have a high concentration of baclofen in the formulas so that the transporters that are present are saturated. Therefore only the increase in paracellular transport was evaluated. The saturation concentration of baclofen in water is 3 mg/ml (internal pre-formulation report). However, its solubility is highly dependent on pH as indicated by the amine and carboxylic functions present on the molecule. Therefore the addition of 0.01 M fumaric acid shown to be compatible with baclofen by the internal pre-formulation report, allows the solubility of baclofen to be increased twofold to 6 mg/ml. The pH is then 3.88.

As to `COCCc1ccc(OCC(O)CNC(C)C)cc1` (stereo not drawn) [metoprolol], in data set [1] (Caco-2, 20 μM metoprolol, positive control), the Papp A→B at 125 min, 20 μM was over 6 ×10⁻⁶ cm/s. Moreover, the “opening of the tight junctions, in words” value in data set [2] is reported as “lack of effect”.
Regarding `NCC(CC(=O)O)c1ccc(Cl)cc1` (stereo not drawn) [baclofen, Baclofen], the “pH of the baclofen solution” value in data set [3] (6 mg/ml baclofen in 0.01 M fumaric acid) is 3.88. For the same molecule, the solubility at 24 h in data set [3] (0.01 M fumaric acid aqueous solution, pH 3.88, aqueous buffer, in 0.01M fumaric acid aqueous medium, ambient, read-out: Solubility of baclofen) is 6000 to 7000 µg/mL (≈ 28.1 to 32.8 mM); in data set [3] (Gélucire 50/13 (molten), oil or lipid, in Gélucire ® 50/13, 60° C., read-out: Solubility of baclofen) it was 500 to 1000 µg/mL (≈ 2.34 to 4.68 mM); in data set [3] (liquid absorption enhancers, oil or lipid, read-out: solubility of the active ingredient in the liquid absorption enhancers), under 1000 µg/mL; in data set [3] (oil or lipid, in Captex ® 355, ambient, read-out: Solubility of baclofen), under 100 µg/mL; in data set [3] (oil or lipid, in Labrasol ®, ambient, read-out: Solubility of baclofen), 200 to 400 µg/mL (≈ 0.936 to 1.87 mM); in data set [3] (oil or lipid, in Miglyol ® 810, ambient, read-out: Solubility of baclofen), under 100 µg/mL. For the same molecule, the solubility in words result in data set [3] (aqueous medium) is “soluble”; in data set [3] (oil excipients) it was “practically insoluble”. Moreover, the “log P” value in data set [4] is listed as −0.96. Also, in data set [1] (Caco-2, Caco-2, apical pH 6.8 to basolateral pH 7.4, read-out: apparent permeability of baclofen), the Papp A→B at 125 min is under 0.3 ×10⁻⁶ cm/s. The “apparent permeability of baclofen” value in data set [5] is on record as “lower than 0.5×10^−6 cm/s”. In data set [6], the logP is -1. Besides, in data set [6], the “pH of a saturated solution” value was 6.5. The pKa1 entry in data set [6] was “pKa1 = 3.87”. The pKa2 result in data set [6] is “pKa2 = 9.62”. The Solubility entry in data set [6] (0.1N HCl, 0.1N NaOH) is “Soluble: 0.1N HCl, 0.1N NaOH”; in data set [6] (Ethanol, Methanol), “Very slightly soluble: Ethanol, Methanol”; in data set [6] (water, read-out: Solubility (saturation concentration) in water), 3000 µg/mL (≈ 14 mM).
